Data published in patent US20090054368A1, “Substituted gemini surfactant compounds” (University of Saskatchewan, priority 2007, published 2009).
Where “and” joins values, the source holds several entries; their conditions need not be identical. Equal values may be shown once. Entries after “also recorded” stand apart in the source; their conditions may differ.

Legend:
[1] = Average membrane charge density calculation for plasmid DNA-gemini surfactant-DOPE nanoparticles; format: physicochemical; settings: calculated from head group areas
[2] = Small angle X-ray scattering (SAXS) of plasmid DNA-gemini surfactant-DOPE complexes; format: physicochemical; settings: for d-spacing of main scattering peak / phase / morphology of lipid bilayers from scattering pattern (in words) / d-spacing of adjacent DNA molecules: plasmid DNA-gemini surfactant-DOPE complexes; for d-spacing of adjacent DNA molecules: weak peaks at q=0.172 Å^−1; for scattering peak position q, DNA: scattering from adjacent DNA molecules
Experimental: SAXS measurements were carried out at beamline X21 at the National Synchrotron Light Source at Brookhaven National Laboratory. Beamline X21 is based on a wiggler source, with a helium gas-cooled Si(111) monochromator selecting the photon energy. The X-ray beam is focused by a toroidal mirror into the experimental station. Three pairs of precision slits, positioned at 4 m, 1 m, and 5 cm upstream of the sample, define the beam. The scattering pattern is recorded using a 13 cm Mar CCD detector (Mar USA, Evanston, Ill.) located 1.26 m (calibrated with the scattering pattern of silver behenate) downstream of the sample. The measurements were performed with 12 KeV x-rays and the data covered a q-range from 0.008 Å^−1 to 0.375 Å^−1. All beam paths are under vacuum, except at the sample position, where the sample is in air, and kapton windows terminate the vacuum beam paths. Samples were loaded into 1.5 mm capillaries (Charles Supper #15-BG, Natick Mass.) and data recorded at room temperature. All spectra were processed to remove background contributions by subtracting the scattering profile obtained for a water-filled capillary. Peak fitting was carried out using the open-sources software package “fityk” (available at http://www.unipress.waw.pl/fityk/; last accessed on Jul. 5, 2007) using multiple Gaussian functions.
Solutions for SAXS analysis were prepared by addition of appropriate amounts of stock surfactant, DNA, and DOPE solutions, followed by sonication (to ensure complete mixing) where appropriate. The pGTmCMV.IFN-GFP plasmid DNA was used in the SAXS studies. The final concentrations of DNA and DOPE were 0.075 mM (50 μg/mL) and 1.00 mM (0.75 mg/mL), respectively. The concentration of gemini surfactant was adjusted as needed to obtain the desired 1:10 DNA:surfactant charge ratio. Preliminary x-ray scattering studies indicated these concentrations to be too dilute to give good scattering signals; as a result, the samples were concentrated 5× by evaporation.

[3] = from reference [24]; cited from earlier work
[4] = tested on: COS-7 African Green monkey kidney fibroblast cells; assay: Transfection assay (luciferase production after transfection with plasmid DNA-gemini surfactant complexes); format: cell-based; settings: PGL complexes, with DOPE added
Experimental: COS-7 African Green monkey kidney fibroblast cells (ATCC CRL1651) were prepared for transfection in antibiotic and 10% fetal bovine serum supplemented minimal Eagle's medium (MEM). The day before transfection, 5×10^4 cells/well were seeded in 24-well plates (Greiner Labortechnik GmbH, Germany). The supplemented MEM was changed to MEM one hour prior to transfection.
The pMASIA.Luc plasmid DNA was used at a concentration of 0.2 μg/well for transfection. The transfection mixtures were prepared as follows: 0.2 μg of plasmid DNA was mixed with aliquots of gemini surfactant solution to obtain a plasmid DNA:gemini surfactant charge ratio of 1:10 and incubated at room temperature for 15 minutes. To this mixture, 25 μL of DOPE liposomes were added. The transfection mixtures were incubated for 30 minutes at room temperature prior to transfection and added to the cells, dropwise. The plates were incubated for 5 hours at 37° C. in a CO2 incubator. Dc-Chol (30-[N—(N′,N′-Dimethylaminoethane)-carbamoyl]cholesterol) was used for comparison and, as a positive control, cells were also transfected with Lipofectamine Plus™ Reagent (Invitrogen Life Technologies, Carlsbad, Calif.), according to the manufacturer's protocol, with 0.2 μg of plasmid DNA per well.
Luciferase production was quantified using the Promega Steady-Glo™ luciferase assay system. Luminescence was monitored using a Turner Biosystems (Sunnyvale, Calif., USA) Reporter microplate luminometer. Statistical analysis was performed using ANOVA and Tukey's multiple comparison test. […] Equal variances were tested using Bartlett's test, and normality by the D'Agostino & Pearson omnibus normality test.

[5] = tested on: cultured cells; assay: Viability of cells following transfection; format: cell-based; settings: after transfection with plasmid DNA-gemini surfactant-DOPE or Lipofectamine Plus; relative to controls (no treatment or plasmid DNA alone)
Experimental: Ideal transfection reagents are minimally toxic and/or disruptive to cells. Accordingly, the N-substituted surfactants were tested for toxicity in cultured cells. The viability of cells following transfection with either plasmid DNA-gemini surfactant-DOPE or Lipofectamine Plus are shown in FIG. 3. The aza-substituted surfactants 12-5N-12, 12-8N-12, and 12-7N-12 had similar toxicity compared to the Lipofectamine Plus reagent, with cell viability around 80% of the controls (i.e., no treatment or plasmid DNA alone; p>0.05).

[6] = tested on: COS-7 African Green monkey kidney fibroblast cells; assay: Transfection assay (luciferase production after transfection with plasmid DNA-gemini surfactant complexes); format: cell-based; settings: PG complexes, complexed with DNA in the absence of helper lipid (DOPE)
[7] = Size (hydrodynamic radius) and zeta potential as a function of pH; format: physicochemical; settings: PGL complexes
Experimental: Determinations of size (hydrodynamic radius, RH) and zeta potential (ζ) as a function of pH were carried out using a Malvern Instruments (Worcestershire, UK) ZetaSizer NanoZs with MPT-2 auto-titrator attachment. 10 mL of the desired sample was placed in the titration cell of the auto-titrator and samples were titrated (in 0.2-0.5 pH unit increments) with 0.1 M NaOH and 0.1 M HCl over the desired pH range. Size and zeta potential measurement were made in triplicate at each pH point, and the reported values represent the average±standard error. pH titrations of aqueous gemini surfactant solutions were made at a surfactant concentration of 2.00 mM, above the critical micelle concentration in all cases.
Solutions for size, zeta potential, and circular dichrosicm (CD) measurements were prepared, in larger volumes, as described above for the transfection experiments using a pGTmCMV.IFN-GFP plasmid DNA, previously constructed in our lab. Solutions containing only surfactant and plasmid DNA were prepared by addition of an aliquot of stock plasmid DNA to the gemini surfactant solution to a charge ratio of 1:10 (DNA:surfactant).

[8] = previous work [11]; cited from earlier work
[9] = tested on: DNA; assay: Binding constant between py-s-12 surfactants and DNA from changes in the UV spectrum of the pyrene moiety; set-up: species or system salmon; settings: estimated from changes in the UV spectrum of the pyrene moiety
Source text: Similar to a series of peptide substituted pyrene compounds described in [51], the S1-S0, S2-S0, and S3-S0 transitions have lambdamax values of 376, 343, and 276 nm, respectively. The broadening of the absorbance bands of pyrene, the red shift in the absorbance band, and the observed hyperchromism in the presence of DNA are evidence of complexed pyrene compounds Quantitative estimates of the binding constants between py-s-12 surfactants and DNA were obtained by monitoring changes in the UV spectrum of the pyrene moiety. The binding constant for py-3-12 and DNA was estimated to be 5.9×10^3 L mol^−1 and that of py-6-12 was 1.9×10^4 L mol^−1. The stronger binding of py-6-12 to DNA implied that the distance between the cationic head groups is more suitable to electrostatically bind to DNA.
Pyrene, 6-bromohexanoyl chloride, anhydrous aluminum chloride, triethylsilane, trifluoroacetatic acid, N,N,N′,N′-tetramethylpropanediamine, N,N,N′,N′-tetramethylhexanediamine, and 1-bromododecane were purchased from Aldrich Inc. All solutions were prepared using analytical-grade water obtained from a Millipore Milli-Q filtration system. The sodium salt of double-stranded (ds) salmon sperm DNA (about 2 kbp, as stated by the manufacturer, Sigma) was used as received. […]

[10] = plasmid DNA-gemini surfactant-DOPE systems

Row | SMILES | membrane charge density σM [1] | d-spacing of main scattering peak [2] [Å] | phase / morphology of lipid bilayers from scattering pattern (in words) [2] | scattering peak position q, lamellar (L) phase [2, 10] | scattering peak position q, DNA [2, 10] | Head group area a0 [3] [nm^2/molecule] | transfection efficiency (in words) [4] | cell viability [5] | transfection efficiency (in words) [6] | further results
1 | CCCCCCCCCCCC[N+](C)(C)CC[N+](C)(C)CCCCCCCCCCCC.[Br-].[Br-] [12-2-12, reference compound] | 1.43 ×10^−2 e/Å^2 | 61.7 | lamellar (L) phase | 0.203 (L) Å^−1 and 0.102 Å^−1 | 0.172 Å^−1 | 0.89 ± 0.05 |  |  |  | d-spacing of adjacent DNA molecules [2]: 36.5 Å
2 | CCCCCCCCCCCC[N+](C)(C)CC(O)C(O)C[N+](C)(C)CCCCCCCCCCCC.[Br-].[Br-] (stereo not drawn) [12-4(OH)2-12] |  |  | mixed lamellar, hexagonal, and cubic phases |  |  |  | enhanced transfection efficiency compared to 12-3-12; also recorded: higher levels of transfection efficiency compared to the non-substituted gemini surfactant 12-3-12 |  |  | 
3 | CCCCCCCCCCCC[N+](C)(C)CCN(C)CC[N+](C)(C)CCCCCCCCCCCC [12-5N-12] | 1.05 ×10^−2 e/Å^2 | 58.6 | lamellar (L) phase | 0.107 Å^−1 and 0.207 (L) Å^−1 | 0.172 Å^−1 and 0.173 Å^−1 | 1.30 ± 0.03 | enhanced transfection efficiency compared to the un-substituted surfactant, 12-3-12; also recorded: higher levels of transfection efficiency compared to the non-substituted gemini surfactant 12-3-12 | around 80% | similarly low transfection efficiency compared to 12-3-12 | transfection efficiency (in words) ([4]; listed as 125N-12): less efficient in DNA transfection; d-spacing of adjacent DNA molecules [2]: 36.5 Å
4 | CCCCCCCCCCCC[N+](C)(C)CCCN(C)CCC[N+](C)(C)CCCCCCCCCCCC.[Br-].[Br-] [12-7N-12, 1,9-bis(dodecyl)-1,1,5,9,9-pentamethyl-5-aza-1,9,-nonanediammonium dibromide] | 0.748 ×10^−2 e/Å^2 | 59.6 |  |  |  | 2.06 ± 0.20 | enhanced transfection efficiency compared to the un-substituted surfactant, 12-3-12; also recorded: higher levels of transfection efficiency compared to the non-substituted gemini surfactant 12-3-12; also recorded: most efficient aza-substituted surfactant; also recorded: highest | around 80% | similarly low transfection efficiency compared to 12-3-12 | pH dependence of particle size (in words) [7]: remained essentially unchanged; pH dependence of zeta potential (in words) [7]: increased as a function of decreasing pH
5 | CCCCCCCCCCCC[N+](C)(C)CCCCCCCC[N+](C)(C)CCCCCCCCCCCC.[Br-].[Br-] [12-8-12] |  |  |  |  |  |  |  |  |  | transfection efficiency within the 12-s-12 series, s=3-8 (in words) [8]: lowest
6 | CCCCCCCCCCCC[N+](C)(C)CCN(C)CCN(C)CC[N+](C)(C)CCCCCCCCCCCC [12-8N-12] | 0.780 ×10^−2 e/Å^2 | 59.6 | lamellar structure | 0.105 Å^−1 and 0.210 (L) Å^−1 | 0.170 Å^−1 and 0.169 (DNA), Å^−1 | 1.95 ± 0.13 |  | around 80% | similarly low transfection efficiency compared to 12-3-12 | scattering peak position q, no phase assigned [2, 10]: 0.119 Å^−1
7 | CCCCCCCCCCCC[N+](C)(C)CCOCC[N+](C)(C)CCCCCCCCCCCC.[Br-].[Br-] [12-E01-12] |  |  | mixed lamellar, hexagonal, and cubic phases |  |  |  | enhanced transfection efficiency compared to 12-3-12; also recorded: higher levels of transfection efficiency compared to the non-substituted gemini surfactant 12-3-12 |  |  | 
8 | CCCCCCCCCCCC[N+](C)(C)CCC[N+](C)(C)CCCCCCc1ccc2ccc3cccc4ccc1c2c34.[Br-].[Br-] [py-3-12, N1-dodecyl,N1,N1,N3,N3-tetramethyl-N3-(6-(pyren-6-yl)-hexyl)propane-1,3-diammonium dibromide] |  |  |  |  |  |  |  |  |  | binding constant with DNA [9]: 5900 L/mol
9 | CCCCCCCCCCCC[N+](C)(C)CCCCCC[N+](C)(C)CCCCCCc1ccc2ccc3cccc4ccc1c2c34.[Br-].[Br-] [py-6-12, N1-dodecyl,N1,N1,N6,N6-tetramethyl-N6-(6-(pyren-6-yl)-hexyl)hexane-1,6-diammonium dibromide] |  |  |  |  |  |  |  |  |  | binding constant with DNA [9]: 19000 L/mol
